Data as given in paper PMC9151520 (Archives of Toxicology, 2022).
Values joined by “and” are separate entries in the source; they are usually repeats but may differ in a detail not shown here. Identical values can stand only once. Like-named read-outs stand apart in the source and are kept apart here.

Legend:
in vitro = details: male, Sprague Dawley, rat, microsomes, pH 7.4
[1] = system: p53 signaling (p53RE-bla HCT-116 cells); assay: cells; assay type: cell-based
[2] = system: p53 signaling (p53RE-bla HCT-116 cells); assay: cells; assay type: cell-based; details: Homo sapiens; for EC50: HCT-116; for Emax: HCT-116, read-out: efficacy
[3] = system: p53 signaling (p53RE-bla HCT-116 cells)
[4] = system: p53 signaling (p53RE-bla HCT-116 cells); details: for EC50: read-out: p53 activation EC50, RLM
[5] = system: p53 signaling (p53RE-bla HCT-116 cells); assay: cells; details: Homo sapiens
[6] = rat
[7] = system: p53 signaling (p53RE-bla HCT-116 cells); assay: cells; assay type: cell-based; remark: listed apart in the source
[8] = system: p53 signaling (p53RE-bla HCT-116 cells); assay: cells; details: Homo sapiens; remark: listed apart in the source
[9] = HCT-116, read-out: p53 activation EC50, HLM
[10] = HCT-116, read-out: p53 activation EC50, RLM
[11] = HCT-116, read-out: p53 activation efficacy, primary screening

SMILES | half-life (in vitro) [min] | p53 activation EC50, No MS [1] | p53 activation Efficacy, No MS [1] | EC50 [2] [nM] | p53 activation EC50, HLM [3] | Viability EC50, HLM (p53RE-bla HCT-116 cells) | Viability EC50, No MS (p53RE-bla HCT-116 cells) | Viability EC50, RLM (p53RE-bla HCT-116 cells) | Viability Efficacy, HLM (p53RE-bla HCT-116 cells) | Viability Efficacy, No MS (p53RE-bla HCT-116 cells) | Viability Efficacy, RLM (p53RE-bla HCT-116 cells) | EC50 [4] [nM] | EC50 [5, 9] [nM] | Depletion after 16 h of incubation with cells [6] [%] | EC50 ([7]; Homo sapiens, HCT-116, 0.5 h) [nM] | EC50 ([8]; HCT-116) [nM] | Emax ([8]; HCT-116, read-out: efficacy) [%] | EC50 [8, 10] [nM] | Emax [2] [%] | activity outcome in p53-bla assay [4] | other results
CCOP(=O)(OCC)OC(=CCl)c1ccc(Cl)cc1Cl [Chlorfenvinphos] | 28.6 ± 1.85 | inactive | inactive | 2540 | inactive | inactive | inactive | inactive | inactive | inactive | inactive | 2080 | 3050 | 55.04 ± 4.69 | 20 | 6360 | 66.8 | 3800 |  |  | 
CCOP(=S)(OCC)Oc1nc(Cl)c(Cl)cc1Cl [Chlorpyrifos] | 1.11 ± 0.07 | inactive | inactive | 3750 | inactive | inactive | inactive | inactive | inactive | inactive | inactive | 2800 | 1780 | 92.74 ± 1.38 |  | 3470 | 50.6 | 2920 | 45.2 | activator of p53 signaling | activity outcome in p53-bla assay [1]: inactive; EC50 [7]: Inactive
CCOP(=S)(OCC)Oc1ccc2c(C)c(Cl)c(=O)oc2c1 [Coumaphos] | 0.88 ± 0.12 | inactive | inactive | 7030 | inactive | inactive | inactive | inactive | inactive | inactive | inactive |  | 891 | 99.03 ± 0.34 |  | 5950 |  |  | 68.7 | induce p53 signaling | EC50 [7]: Inactive
CCOP(=S)(OCC)SCCSCC [Disulfoton] | > 120 | inactive | inactive | 8470 | inactive | inactive | inactive | inactive | inactive | inactive | inactive | 3970 | 5070 | 93.89 ± 4.12 |  | 9130 | 43.3 | 7780 | 43.6 | induce p53 signaling | EC50 [7]: Inactive
COP(=S)(OC)Oc1ccc(S(=O)(=O)N(C)C)cc1 [Famphur] | 10.8 ± 1.96 | inactive | inactive | 3100 | inactive | inactive | inactive | inactive | inactive | inactive | inactive | 3100 | 2020 | 87.7 ± 3.02 | 490 | 2460 | 73.6 | 3120 |  |  | 
CCNP(=S)(OC)O/C(C)=C/C(=O)OC(C)C (centres unmarked) [Propetamphos] | > 120 |  |  | 2590 |  |  |  |  |  |  |  |  |  | 91.32 ± 1.7 | 2000 | 3050 | 88.6 |  |  |  | p53 activation EC50 [1]: inactive; p53 activation efficacy [1]: inactive; p53 activation EC50 [3]: inactive; Viability EC50 (p53RE-bla HCT-116 cells): inactive; Viability efficacy (p53RE-bla HCT-116 cells): inactive; p53 activation efficacy [4]: 78.66 and 99.2667; EC50 ([5]; HCT-116, read-out: p53 activation EC50): 731 nM; Emax ([5]; HCT-116, read-out: p53 activation efficacy): 39.9%
CCOC(=O)c1cn2nc(OP(=S)(OCC)OCC)cc2nc1C [Pyrazophos] | 2.29 ± 0.71 | inactive | inactive | 790 | inactive | inactive | inactive | inactive | inactive | inactive | inactive | 877 | 3670 | 88.65 ± 0.14 | 41000 | 700 | 32.7 | 765 |  |  | 
CCOP(=S)(OCC)SCSC(C)(C)C [Terbufos] | 1.12 ± 0.2 |  |  | 1120 |  |  |  |  |  |  |  |  |  | 98.65 ± 1.08 |  | 2810 | 62.7 |  | 53.9 | induce p53 signaling | p53 activation EC50, cherry pick confirmation [1]: inactive; p53 activation EC50, primary screening [1]: inactive; p53 activation efficacy, cherry pick confirmation [1]: inactive; p53 activation efficacy, primary screening [1]: inactive; p53 activation EC50, cherry pick confirmation [3]: inactive; p53 activation efficacy, cherry pick confirmation [3]: inactive; Viability EC50, cherry pick confirmation (p53RE-bla HCT-116 cells): inactive; Viability EC50, primary screening (p53RE-bla HCT-116 cells): inactive; Viability efficacy, cherry pick confirmation (p53RE-bla HCT-116 cells): inactive; Viability efficacy, primary screening (p53RE-bla HCT-116 cells): inactive; Emax [5, 11]: 37.6%; EC50 [7]: Inactive; EC50 ([8]; HCT-116, read-out: p53 activation EC50, cherry pick confirmation): 1320 nM; Emax ([8]; HCT-116, read-out: p53 activation efficacy, cherry pick confirmation): 54.3%; Emax [8, 11]: 37.5%
Cc1ccccc1OP(=O)(Oc1ccccc1C)Oc1ccccc1C [Tri-o-cresyl phosphate] | 1.17 ± 0.08 | inactive | inactive | 3140 | inactive | inactive | inactive | inactive | inactive | inactive | inactive |  | 1120 | 93.36 ± 0.84 | 15800 | 5320 | 59.6 |  |  |  | 
